Experimental data taken from patent US20250339569A1, “CARBONIC ANHYDRASE IX LIGANDS” (priority 2021, published 2025).
Starred links: 1 amine or outer side, 2 acyl side, 3 side chain; linkers in the order of their positions; H or OH if unused. Positions of bridges follow the written chain, without caps; N, C: chain ends. Non-standard residues stand in square brackets, D forms with d. Residues, ends and D or L forms follow the SMILES beside them. No end group written: not given here. *: point of attachment. DOTA = O=C(O)CN1CCN(CC(=O)O)CCN(CC(=O)*)CCN(CC(=O)O)CC1; NGly(3-aminopropyl) = O=C(CN(CCCN[*:3])[*:1])[*:2]; mXylylene = c1cc(C[*:1])cc(C[*:2])c1; Pen = CC(C)(S)[C@H](N)C(=O)O; APAc = not defined here; Aib = CC(C)(N)C(=O)O; Sar = CNCC(=O)O

These compounds were tested against T1, CAIX-expressing human HT-29 colorectal cancer cells (Homo sapiens, UniProt Q16790) (assay: FACS binding assay (IC50 determination, competition with tracer 3BP-2776 or 3BP-4149)). Details: FACS binding assay, HT-29 cells, competition with tracer 3BP-2776 (10 nM, biotin-labeled), 4° C., 1 hour.
T1 construct: CAIX-expressing human HT-29 colorectal cancer cells; host or cells: HT-29 human colorectal cancer cells
Experimental: In order to determine binding of compounds according to the present invention to CAIX-expressing cells, a FACS binding assay was established.
CAIX-expressing human HT-29 colorectal cancer cells (DSMZ, RRID: CVCL_0320) were cultured in McCoys's 5A modified medium (Biochrom, #F1015) including 10% fetal calf serum (FCS), 2 mM L-glutamine, 100 U/ml penicillin and 100 μg/mL streptomycin. Cells were detached with Accutase (Biolegend, #423201) and washed in FACS buffer (PBS including 1% FCS). Cells were diluted in FACS buffer to a final concentration of 500.000 cells per ml. 200 μL of the cell suspension were transferred to a u-shaped non-binding 96-well plate (Greiner) and cells were washed in ice-cold FACS buffer.
When biotinylated compounds were used an additional incubation step with 1 μg/mL APC-Streptavidin (Miltenyi; #130-106-791) in 50 μL FACS buffer for 30 minutes on ice was performed.
Cells were washed twice with ice-cold FACS buffer and analyzed in an Attune NxT flow cytometer (Thermo Fisher). Median fluorescence intensities (MFI) of the APC/Cy5-channel were calculated by Attune NxT software. MFI values were plotted against peptide concentration and four parameter logistic (4PL) curve fitting and EC50/pEC50 or IC50/pIC50 calculations were performed using ActivityBase software.

| pIC50 category (activity) | Compound |
| --- | --- |
| A (pIC50 values >8.0) | 3BP-4178 ([dP]PVYCE[dP]DWLTWSC; linker 5-14 via mXylylene; not fully specified (bridges)) |
| B (pIC50 values between 7.1 and 8.0) | 3BP-4252 ({DOTA-APAc}-VYCEG[NGly(3-aminopropyl)]WLEWSC-NH2; linker 3-12 via mXylylene; lactam 6-9; reading uncertain) |

Same assay, conditions: FACS competition on HT-29 cells, Tracer ID 3BP-2776 (10 nM, biotin-labeled), 4° C., 1 hour; read-out: pIC50 category (activity) (converted)

| IC50 [nM] | Compound |
| --- | --- |
| 10 to 79.4 | CC(=O)N[C@@H](C(=O)N[C@@H](Cc1ccc(O)cc1)C(=O)N[C@H]1CSCc2cccc(c2)CSC[C@@H](C(N)=O)NC(=O)[C@H](CCC(N)=O)NC(=O)[C@H](Cc2c[nH]c3ccccc23)NC(=O)[C@H]([C@@H](C)O)NC(=O)[C@H](CC(C)C)NC(=O)[C@H](Cc2c[nH]c3ccccc23)NC(=O)[C@H](CC(=O)O)NC(=O)CNC(=O)[C@H](CCC(=O)O)NC1=O)C(C)C [3BP-3043] (Ac-[dV]YCEGDWLTWQC-NH2; linker 3-12 via mXylylene) |
| 100 to 794 | CC(=O)N[C@H](C(=O)N[C@H](Cc1ccc(O)cc1)C(=O)N[C@H]1CSCc2cccc(c2)CSC[C@@H](C(N)=O)NC(=O)[C@H](CCC(N)=O)NC(=O)[C@H](Cc2c[nH]c3ccccc23)NC(=O)[C@H]([C@@H](C)O)NC(=O)[C@H](CC(C)C)NC(=O)[C@H](Cc2c[nH]c3ccccc23)NC(=O)[C@H](CC(=O)O)NC(=O)CNC(=O)[C@H](CCC(=O)O)NC1=O)C(C)C [3BP-3044] (Ac-V[dY]CEGDWLTWQC-NH2; linker 3-12 via mXylylene) |
| 100 to 794 | CC(=O)N[C@H](C(=O)N[C@@H](Cc1ccc(O)cc1)C(=O)N[C@H]1CSCc2cccc(c2)CSC[C@@H](C(N)=O)NC(=O)[C@H](CCC(N)=O)NC(=O)[C@H](Cc2c[nH]c3ccccc23)NC(=O)[C@H]([C@@H](C)O)NC(=O)[C@H](CC(C)C)NC(=O)[C@H](Cc2c[nH]c3ccccc23)NC(=O)[C@H](CC(=O)O)NC(=O)CNC(=O)[C@@H](CCC(=O)O)NC1=O)C(C)C [3BP-3045] (Ac-VYC[dE]GDWLTWQC-NH2; linker 3-12 via mXylylene) |
| 100 to 794 | CC(=O)N[C@H](C(=O)N[C@@H](Cc1ccc(O)cc1)C(=O)N[C@H]1CSCc2cccc(c2)CSC[C@@H](C(N)=O)NC(=O)[C@H](CCC(N)=O)NC(=O)[C@H](Cc2c[nH]c3ccccc23)NC(=O)[C@H]([C@@H](C)O)NC(=O)[C@H](CC(C)C)NC(=O)[C@H](Cc2c[nH]c3ccccc23)NC(=O)[C@@H](CC(=O)O)NC(=O)CNC(=O)[C@H](CCC(=O)O)NC1=O)C(C)C [3BP-3047] (Ac-VYCEG[dD]WLTWQC-NH2; linker 3-12 via mXylylene) |
| 100 to 794 | CC(=O)N[C@H](C(=O)N[C@@H](Cc1ccc(O)cc1)C(=O)N[C@H]1CSCc2cccc(c2)CSC[C@@H](C(N)=O)NC(=O)[C@H](CCC(N)=O)NC(=O)[C@H](Cc2c[nH]c3ccccc23)NC(=O)[C@@H]([C@H](C)O)NC(=O)[C@H](CC(C)C)NC(=O)[C@H](Cc2c[nH]c3ccccc23)NC(=O)[C@H](CC(=O)O)NC(=O)CNC(=O)[C@H](CCC(=O)O)NC1=O)C(C)C [3BP-3049] (Ac-VYCEGDWL[dT]WQC-NH2; linker 3-12 via mXylylene) |
| < 10 | CC(=O)N[C@H](C(=O)N[C@@H](Cc1ccc(O)cc1)C(=O)N[C@H]1CSCc2cccc(c2)CSC[C@@H](C(N)=O)NC(=O)[C@H](CCC(N)=O)NC(=O)[C@H](Cc2c[nH]c3ccccc23)NC(=O)[C@H]([C@@H](C)O)NC(=O)[C@H](CC(C)C)NC(=O)[C@H](Cc2c[nH]c3ccccc23)NC(=O)[C@H](CC(=O)O)NC(=O)CNC(=O)[C@H](C)NC1=O)C(C)C [3BP-3052] (Ac-VYCAGDWLTWQC-NH2; linker 3-12 via mXylylene) |
| 10 to 79.4 | CC(=O)N[C@H](C(=O)N[C@@H](Cc1ccc(O)cc1)C(=O)N[C@H]1CSCc2cccc(c2)CSC[C@@H](C(N)=O)NC(=O)[C@H](CCC(N)=O)NC(=O)[C@H](Cc2c[nH]c3ccccc23)NC(=O)[C@H]([C@@H](C)O)NC(=O)[C@H](CC(C)C)NC(=O)[C@H](Cc2c[nH]c3ccccc23)NC(=O)[C@H](C)NC(=O)CNC(=O)[C@H](CCC(=O)O)NC1=O)C(C)C [3BP-3053] (Ac-VYCEGAWLTWQC-NH2; linker 3-12 via mXylylene) |
| 100 to 794 | CC(=O)N[C@H](C(=O)N[C@@H](Cc1ccc(O)cc1)C(=O)N[C@H]1CSCc2cccc(c2)CSC[C@@H](C(N)=O)NC(=O)[C@H](CCC(N)=O)NC(=O)[C@H](Cc2c[nH]c3ccccc23)NC(=O)[C@H]([C@@H](C)O)NC(=O)[C@H](C)NC(=O)[C@H](Cc2c[nH]c3ccccc23)NC(=O)[C@H](CC(=O)O)NC(=O)CNC(=O)[C@H](CCC(=O)O)NC1=O)C(C)C [3BP-3055] (Ac-VYCEGDWATWQC-NH2; linker 3-12 via mXylylene) |
| < 10 | CC(=O)N[C@H](C(=O)N[C@@H](Cc1ccc(O)cc1)C(=O)N[C@H]1CSCc2cccc(c2)CSC[C@@H](C(N)=O)NC(=O)[C@H](CCC(N)=O)NC(=O)[C@H](Cc2c[nH]c3ccccc23)NC(=O)[C@H]([C@@H](C)O)NC(=O)[C@H](CC(C)C)NC(=O)[C@H](Cc2c[nH]c3ccccc23)NC(=O)[C@H](CC(=O)O)NC(=O)C(C)(C)NC(=O)[C@H](CCC(=O)O)NC1=O)C(C)C [3BP-3059] (Ac-VYCE[Aib]DWLTWQC-NH2; linker 3-12 via mXylylene) |

Second part, the compound before the results:

| Compound | IC50 [nM] |
| --- | --- |
| CSCC[C@H](NC(C)=O)C(=O)N[C@H](C(=O)N[C@@H](Cc1ccc(O)cc1)C(=O)N[C@H]1CSCc2cccc(c2)CSC[C@@H](C(N)=O)NC(=O)[C@H](CCC(N)=O)NC(=O)[C@H](Cc2c[nH]c3ccccc23)NC(=O)[C@H]([C@@H](C)O)NC(=O)[C@H](CC(C)C)NC(=O)[C@H](Cc2c[nH]c3ccccc23)NC(=O)[C@H](CC(=O)O)NC(=O)CNC(=O)[C@H](CCC(=O)O)NC1=O)C(C)C [3BP-2836] (Ac-MVYCEGDWLTWQC-NH2; linker 4-13 via mXylylene) | 100 to 794 |
| CC(=O)N[C@H](C(=O)N[C@@H](Cc1ccc(O)cc1)C(=O)N[C@H]1CSCc2cccc(c2)CSC[C@@H](C(N)=O)NC(=O)[C@H](CCC(N)=O)NC(=O)[C@H](Cc2c[nH]c3ccccc23)NC(=O)[C@H]([C@@H](C)O)NC(=O)[C@H](CC(C)C)NC(=O)[C@H](Cc2c[nH]c3ccccc23)NC(=O)[C@H](CC(=O)O)NC(=O)[C@@H](C)NC(=O)[C@H](CCC(=O)O)NC1=O)C(C)C [3BP-3046] (Ac-VYCE[dA]DWLTWQC-NH2; linker 3-12 via mXylylene) | < 10 |
| CC(=O)N[C@H](C(=O)N[C@@H](Cc1ccc(O)cc1)C(=O)N[C@H]1CSCc2cccc(c2)CSC[C@@H](C(N)=O)NC(=O)[C@H](CCC(N)=O)NC(=O)[C@H](Cc2c[nH]c3ccccc23)NC(=O)[C@H]([C@@H](C)O)NC(=O)[C@@H](CC(C)C)NC(=O)[C@H](Cc2c[nH]c3ccccc23)NC(=O)[C@H](CC(=O)O)NC(=O)CNC(=O)[C@H](CCC(=O)O)NC1=O)C(C)C [3BP-3048] (Ac-VYCEGDW[dL]TWQC-NH2; linker 3-12 via mXylylene) | 100 to 794 |
| CC(=O)N[C@H](C(=O)N[C@@H](Cc1ccc(O)cc1)C(=O)N[C@H]1CSCc2cccc(c2)CSC[C@@H](C(N)=O)NC(=O)[C@H](CCC(N)=O)NC(=O)[C@H](Cc2c[nH]c3ccccc23)NC(=O)[C@H](C)NC(=O)[C@H](CC(C)C)NC(=O)[C@H](Cc2c[nH]c3ccccc23)NC(=O)[C@H](CC(=O)O)NC(=O)CNC(=O)[C@H](CCC(=O)O)NC1=O)C(C)C [3BP-3056] (Ac-VYCEGDWLAWQC-NH2; linker 3-12 via mXylylene) | 10 to 79.4 |
| CC(=O)N[C@H](C(=O)N[C@@H](Cc1ccc(O)cc1)C(=O)N[C@H]1CSCc2cccc(c2)CSC[C@@H](C(N)=O)NC(=O)[C@H](CCC(N)=O)NC(=O)[C@H](Cc2c[nH]c3ccccc23)NC(=O)[C@H]([C@@H](C)O)NC(=O)[C@H](CC(C)C)NC(=O)[C@H](Cc2c[nH]c3ccccc23)NC(=O)[C@H](CC(=O)O)NC(=O)CN(C)C(=O)[C@H](CCC(=O)O)NC1=O)C(C)C [3BP-3060] (Ac-VYCE[Sar]DWLTWQC-NH2; linker 3-12 via mXylylene) | < 10 |
| CC(=O)N[C@H](C(=O)N[C@@H](Cc1ccc(O)cc1)C(=O)N[C@H]1CSCc2cccc(c2)CSC[C@@H](C(N)=O)NC(=O)[C@H](CCC(N)=O)NC(=O)[C@H](Cc2c[nH]c3ccccc23)NC(=O)[C@H]([C@@H](C)O)NC(=O)[C@H](CC(C)C)NC(=O)[C@H](Cc2c[nH]c3ccccc23)NC(=O)C(C)(C)NC(=O)CNC(=O)[C@H](CCC(=O)O)NC1=O)C(C)C [3BP-3061] (Ac-VYCEG[Aib]WLTWQC-NH2; linker 3-12 via mXylylene) | 100 to 794 |
| CC(=O)N[C@H](C(=O)N[C@@H](Cc1ccc(O)cc1)C(=O)N[C@@H]1C(=O)N[C@@H](CCC(=O)O)C(=O)NCC(=O)N[C@@H](CC(=O)O)C(=O)N[C@@H](Cc2c[nH]c3ccccc23)C(=O)N[C@@H](CC(C)C)C(=O)N[C@@H]([C@@H](C)O)C(=O)N[C@@H](Cc2c[nH]c3ccccc23)C(=O)N[C@@H](CCC(N)=O)C(=O)N[C@H](C(N)=O)CSCc2cccc(c2)CSC1(C)C)C(C)C [3BP-3063] (Ac-VY[Pen]EGDWLTWQC-NH2; linker 3-12 via mXylylene) | 10 to 79.4 |
